Measured values reported in PubChem BioAssay (NCI).
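Tested at 5 concentrations; 48 h exposure; 96-well plates; endpoints linearly interpolated, else capped at highest concentration. GI50 = concentration required for 50% inhibition of growth. TGI: total growth inhibition.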

What was measured:
Assay in all cases: growth of human tumour cells (NCI), 48 h
ACHN renal = test system: ACHN renal
SK-MEL-28 melanoma = test system: SK-MEL-28 melanoma
MALME-3M melanoma = test system: MALME-3M melanoma
SK-OV-3 ovarian = test system: SK-OV-3 ovarian
786-0 renal = test system: 786-0 renal
HOP-92 NSCLC = test system: HOP-92 NSCLC
SW-620 colon = test system: SW-620 colon
LOX IMVI melanoma = test system: LOX IMVI melanoma
U251 CNS = test system: U251 CNS
T-47D breast = test system: T-47D breast

Row | Structure (SMILES) | TGI (ACHN renal) [µM] | TGI (SK-MEL-28 melanoma) [µM] | TGI (MALME-3M melanoma) [µM] | TGI (SK-OV-3 ovarian) [µM] | TGI (786-0 renal) [µM] | TGI (HOP-92 NSCLC) [µM] | TGI (SW-620 colon) [µM] | TGI (LOX IMVI melanoma) [µM] | TGI (U251 CNS) [µM] | GI50 (ACHN renal) [µM] | GI50 (SK-MEL-28 melanoma) [µM] | GI50 (LOX IMVI melanoma) [µM] | GI50 (MALME-3M melanoma) [µM] | GI50 (SK-OV-3 ovarian) [µM] | GI50 (786-0 renal) [µM] | GI50 (U251 CNS) [µM] | GI50 (HOP-92 NSCLC) [µM] | GI50 (SW-620 colon) [µM] | GI50 (T-47D breast) [µM] | TGI (T-47D breast) [µM]
1 | C[N+](C)(C)CC(=O)N/N=C/c1oc(-c2cccc([N+](=O)[O-])c2)c(-c2cccc([N+](=O)[O-])c2)c1[N+](=O)[O-] | > 100 | > 100 | > 100 | > 100 | > 100 | > 100 | > 100 | – | – | – | – | – | – | – | – | – | – | – | – | –
2 | Cc1nn2c(=O)n(-c3cccc(-n4nnc5c(-c6ccccc6)c(C)nn5c4=O)c3C)nnc2c1-c1ccccc1 | 76.7 | – | 56 | > 100 | > 100 | > 100 | 48.4 | > 100 | > 100 | – | – | – | – | – | – | – | – | – | – | –
3 | C=C1C(=O)O[C@H]2[C@H]1CC/C(COC(=O)c1cccc3ccccc13)=C\CC[C@@]1(C)O[C@@H]21 | 2.86 | 3.64 | 3.66 | 23.7 | 3.22 | 2.61 | 2.87 | 2.8 | 2.68 | 1.52 | 1.82 | 1.35 | 1.76 | 11.6 | 1.69 | 1.39 | 1.01 | 1.08 | – | –
4 | COc1ccc(-c2nnc(Nc3nc(O)c(C4=c5cc(OC(F)(F)F)ccc5=NC4=O)s3)o2)cc1 | > 100 | > 100 | – | 44 | 24.3 | 43.5 | > 100 | 56.1 | 30.7 | 22.3 | 17.8 | 16.3 | – | 17.4 | 11.2 | 12.4 | 15.7 | 38.2 | 69.8 | > 100
5 | CN=c1ss/c(=N\C(=S)N(C)C)n1C1CCCCC1 | > 31.6 | > 31.6 | > 31.6 | > 31.6 | > 10 | > 10 | > 31.6 | > 31.6 | > 31.6 | – | – | – | – | – | – | – | – | – | – | –
6 | CN(C(=O)C12C3C4C1C1C2C3C41C(=O)N(C)C(C)(C)C)C(C)(C)C (stereo not drawn) | > 50 | > 50 | > 50 | > 50 | > 50 | > 50 | > 50 | – | > 50 | – | – | – | – | – | – | – | – | – | – | –
7 | O=C(Cc1nc2ccc(C(=O)c3ccccc3)cc2[nH]c1=O)C(=O)Nc1ccc(C(F)(F)F)cc1[N+](=O)[O-] | > 100 | > 100 | > 100 | > 100 | > 100 | > 100 | > 100 | > 100 | > 100 | – | – | – | – | – | – | – | – | – | – | –
8 | Cc1ccc(SC2C(C)(C)N(C(C)C)P2(=O)N(C(C)C)C(C)C)cc1 (stereo not drawn) | > 100 | > 100 | > 100 | > 100 | > 100 | 58.3 | > 50 | > 59.9 | > 100 | – | – | – | – | – | – | – | – | – | – | –
9 | Cc1ccc2c(n1)C(=O)C(Cl)=C(Nc1ccc(N3CCN(C)CC3)cc1)C2=O | 3.13 | 3.31 | 2.99 | 25.8 | 3.1 | 3.21 | 4.52 | 3.22 | 3.19 | 1.75 | 1.88 | 1.78 | 1.62 | 13 | 1.71 | 1.79 | 1.68 | 2.01 | – | –
10 | Cc1ccc2nc3sc(=O)sc3nc2c1 | 28.5 | 48.9 | – | 34.6 | 28.8 | 28.9 | 67.9 | 28.2 | 30.8 | – | – | – | – | – | – | – | – | – | – | > 100
11 | CCOC(=O)C/C(N)=C(\C#N)C(=O)OCC | > 100 | > 100 | > 100 | > 100 | > 100 | > 100 | > 100 | > 100 | > 100 | – | – | – | – | – | – | – | – | – | – | –
12 | O=S1c2ccccc2N=C(c2ccc3ccccc3c2)CC1c1ccccc1F (stereo not drawn) | > 100 | > 100 | > 100 | > 100 | > 100 | – | > 100 | > 100 | > 100 | – | – | – | – | – | – | – | – | – | – | –
13 | COc1cc(C2CC(=O)c3c(C)nn(-c4nc5ccccc5[nH]4)c3C2)cc(OC)c1OC (stereo not drawn) | – | > 100 | – | > 100 | > 100 | – | > 100 | – | – | – | > 100 | – | – | 4.12 | 3.34 | – | – | > 100 | – | –
14 | OC1=CN=C(C2CC2)Oc2ccccc21 | > 100 | > 100 | > 100 | > 100 | > 100 | > 100 | > 100 | > 100 | > 100 | – | – | – | – | – | – | – | – | – | – | –
15 | CC(C)(C)C1CCP(=O)(c2ccccc2)CC1 (stereo not drawn) | > 100 | > 100 | > 100 | > 100 | > 100 | – | > 100 | > 100 | > 100 | – | – | – | – | – | – | – | – | – | – | –
16 | CC(N)CN.CC(N)CN.[Cl-].[O]=[Os+2]=[O] (stereo not drawn) | – | > 100 | > 100 | – | > 100 | – | > 100 | > 100 | > 100 | – | > 100 | 27 | > 100 | – | 64.5 | > 100 | – | 69 | – | –
17 | COC(=O)[C@H]1CC(=O)C=C2CCCC21 (stereo partly drawn) | – | > 100 | > 100 | > 100 | > 100 | > 100 | > 100 | > 100 | > 100 | – | – | – | – | – | – | – | – | – | – | –
18 | CC1=C(C(=O)Nc2cccc(C(F)(F)F)c2)C(c2ccccc2F)C(C(=O)Nc2cccc(C(F)(F)F)c2)=C(C)N1 | 19 | 23.7 | 21.8 | 25.9 | 19.4 | 9.11 | 22.7 | 18.3 | 27.1 | – | – | – | – | – | – | – | – | – | – | –
19 | Cc1ccc(C)c(NC(=O)C(=O)CC(=O)c2cccc3ccccc23)c1 | > 100 | > 100 | > 100 | > 100 | > 100 | > 100 | > 100 | > 100 | > 100 | – | – | – | – | – | – | – | – | – | – | –
20 | CC(=O)C(CN(C)Cc1ccccc1)C(c1ccccc1)c1c(O)c2ccccc2oc1=O (stereo not drawn) | > 100 | > 100 | > 100 | > 100 | > 100 | > 100 | > 100 | > 100 | > 100 | – | – | – | – | – | – | – | – | – | – | –
21 | COc1ccc2oc(-c3cc4cc(OC)ccc4o3)cc2c1 | > 100 | > 100 | > 100 | > 100 | > 100 | > 100 | > 100 | > 100 | – | – | – | – | – | – | – | – | – | – | – | –
22 | COc1ccc(C2c3cc4c(c(OC)c3CC3OCC(=O)C32)OCO4)cc1OC (stereo not drawn) | 71.7 | > 100 | – | > 100 | > 100 | > 100 | > 100 | – | > 100 | – | – | – | – | < 0.01 | < 0.01 | < 0.01 | – | < 0.01 | – | –
23 | O=C(O)/C(=C/c1ccccc1[N+](=O)[O-])c1cccs1 | > 100 | > 100 | – | > 100 | > 100 | – | > 100 | > 100 | > 100 | – | – | – | – | – | – | – | – | – | – | –
24 | O=C1c2ccccc2-c2c1c1c(O)cccc1n2CCCc1ccccc1 | 66.9 | > 100 | – | > 100 | 99.3 | > 100 | > 100 | > 100 | > 100 | 14.1 | > 100 | 43.9 | – | 84.3 | 21 | 26.4 | 45.3 | 51.9 | 13 | > 100
25 | CC(=O)n1cc(CC(C)O)c(=O)[nH]c1=O (stereo not drawn) | > 100 | > 100 | – | > 100 | > 100 | – | > 100 | > 100 | > 100 | – | – | – | – | – | – | – | – | – | – | –
26 | NC(Cc1ccc(O)cc1)C(=O)N/N=C/c1ccc(N(CCCl)CCCl)cc1 (stereo not drawn) | > 100 | > 100 | – | > 100 | 75.9 | > 100 | > 100 | 68.4 | > 100 | 6.42 | 58.7 | 5.73 | – | 47.9 | 5.98 | 27.8 | 21.4 | 16 | 10.1 | > 100
27 | CC1(C)C(=O)CCC(=O)C(C)(C)C2=CC=C(O2)C(C)(C)C(=O)CCC(=O)C(C)(C)C2=CC=C1O2 | > 100 | > 100 | > 100 | > 100 | > 100 | > 100 | > 100 | > 100 | > 100 | – | – | – | – | – | – | – | – | – | – | –
28 | CS(=O)/C(C#N)=C\C=C\c1cccc(Cl)c1 (stereo not drawn) | 10.4 | 9.78 | – | 26.4 | 12.2 | 7 | 11.6 | 2.73 | 7.81 | 2.78 | 2.68 | 1.31 | – | 10.6 | 3.21 | 1.71 | 2.93 | 2.71 | 2.67 | 17
29 | CC(C)(C)c1cc(Oc2ccc(C#N)c(C#N)c2)cc(C(C)(C)C)c1 | > 100 | > 100 | > 100 | > 100 | > 100 | > 100 | – | 94.6 | > 100 | – | – | – | – | – | – | – | – | – | – | –
30 | NC(=O)c1ccccc1NC(=O)C(=O)Nc1n[nH]c(N)n1 | > 100 | – | > 100 | > 100 | > 100 | – | > 100 | > 100 | > 100 | – | – | – | – | – | – | – | – | – | – | –
